According to US20240174684A1, “INHIBITORS OF cGAS ACTIVITY AS THERAPEUTIC AGENTS” (BELLBROOK LABS, LLC, priority 2021, published 2024):
Where two headings read alike, the source gives them in different places.

Legend:
cGAS = cGAS (Homo sapiens, UniProt Q8N884); experiment: Transcreener cGAS enzymatic assay (FP); assay type: biochemical
Protocol: Structural, biochemical and biophysical analysis and selectivity profiling: Potency and MOA studies, including Mn^2+ sensitivity, were performed using the Transcreener cGAS enzymatic assay, which is manufactured at BellBrook Labs (Fitchburg, Wisconsin, USA). This homogenous cGAS enzymatic assay was developed with fluorescence polarization (FP) and time-resolved Forster resonance energy transfer (TR-FRET) readouts, as described in International Patent Publication WO 2020/142729, incorporated by reference herein in its entirety. Plates are read on a PHERAstar FSX multimode reader (BMG). The compounds of the disclosure were tested for inhibition of cGAS ([…]) using this cGAS enzymatic assay under standard conditions (100 μM ATP and GTP, 62.5 nM bp ISD, 60 minute reactions), high ATP and GTP (1 mM) to mimic physiological conditions, in the presence of 200 μM MnCl2, and with mouse cGAS under standard conditions.
The IC50 values for FP under standard and under physiological conditions were determined for several exemplary compounds of the invention. The relative activities for FP Standard IC50 are shown in Table 2 below, where A represents <50 nM; B represents 50-100 nM; C represents 100-200 nM; D represents 200 nM-1μM; and E represents 1-10 μM. For the relative activities for FP Physiological IC50, A′ represents <200 nM; B′ represents 200-500 nM; C′ represents 500 nM-1μM; D′ represents 1-5 μM; and E′ represents >5 μM.

[1] = test system: IFNβ production in THP-1 cells; experiment: IFNβ ELISA in THP-1 cells; assay type: cell-based, human; details: Homo sapiens; THP-1 cells
Source text: (§1) Cellular assays: The human monocyte cell line THP-1 and human primary PBMCs were used to evaluate the cellular activity of compounds with good biochemical potency. These cells produce a robust cGAS/STING-dependent type I IFN response when stimulated with dsDNA and other pathogen-associated molecular patterns, which was detected using a standard ELISA for IFNβ (R&D Systems). The TBK1 inhibitor, BX-795, which acts downstream of cGAS/STING, was used as a probe.
CETSA was also used to confirm that the compounds are binding to cGAS in cells; THP-1 cells are used for this analysis. Compounds were tested in dose response mode by incubating with cells for 1.5 hours at 37° C., followed by pelleting and re-suspending in PBS, heating to 51.5° C. for 3 min and cooling to room temp. Cells were then lysed, debris, including denatured cGAS, was pelleted and the supernatant was analyzed for soluble cGAS by Western Blot using anti-cGAS primary Ab (Cell Signaling). Band intensity was analyzed using Image J software. Stimulation with cGAMP directly activates STING, circumventing cGAS; this was used to determine if compounds had effects on downstream components of cGAS/STING signaling. The IFN-6 ELISA was used as the primary measure of cellular potency and selectivity (Table 3) and used the reporter gene assays for assessing off-target activity with other pattern recognition receptors.
(§2) The ICso values for IFNB ELISA stimulated with THP-1, PBMC, DNA, and cGAMP were determined for several exemplary compounds of the invention, and are provided in Table 3 where A represents <1 μM; B represents 1-2.5 μM; C represents 2.5-10 μM; D represents 10-20 μM; and E represents >20 μM.

MDR1 (P-glycoprotein) = experiment: MDCK-MDR1 permeability A→B; assay type: in vitro ADME, Canine; details: dog; MDCK cells expressing human MDR1, A→B; read-out: MDCK-MDR Permeability A→B
Protocol: ADME studies: Compound A and the compounds of the disclosure were tested for aqueous solubility (KSOL), metabolic stability (human and mouse […]) and permeability (Caco-2 and/or MDR1-MDCK cells) to provide an initial indication of oral bioavailability.
The favorable physicochemical properties are reflected in promising results in in vitro ADME tests. […] Metabolic stability, which was routinely measured with mouse and human hepatocytes, is outstanding, with t, greater than 2 hours for all of the compounds of the disclosure in which it has been measured. Cell permeability was measured using MDCK cells expressing human MDR1 (P-glycoprotein) to assess passive permeability as well as active transport out of the cell. […] Numerous compounds in Table 1 meet these permeability criteria, which is consistent with their design for TPSA <140 Å^2 and increased lipophilicity.
The MDCK-MDR1 permeability A ->B is shown in Table 2 below, where A represents 5-10 cm/s×10^−6; B represents 1-5 cm/s×10^−6; and C represents <1 cm/ss×10^−6. The metabolic stability half time, in both mouse and human hepatocytes, is also shown in Table 2 below, where A′ represents 100-200 minutes; B′ represents 200-300 minutes; and C′ represents >300 minutes.

[2] = test system: IFN-β production in PBMCs; experiment: IFNβ ELISA in human primary PBMCs; assay type: cell-based; details: PBMC
Source text: as §1, §2
The reporter gene assays were used to assess off-target activity with IRF30Luc (RIG-1) or NFKB (TLR4); CellTiter Glo (ATP levels) and Presto Blue (reducing equivalents) were used to assess cytotoxicity; all assays were performed in dose response mode. […] The inventors recently began using human PBMCs to assess cellular potency in a more physiologically relevant context.

[3] = high ATP and GTP (1 mM) to mimic physiological conditions, read-out: IC50 FP Physiological
[4] = standard conditions: 100 μM ATP and GTP, 62.5 nM bp ISD, 60 minute reactions, read-out: IC50 FP Standard

Chain of cGAS (Q8N884 whole entry): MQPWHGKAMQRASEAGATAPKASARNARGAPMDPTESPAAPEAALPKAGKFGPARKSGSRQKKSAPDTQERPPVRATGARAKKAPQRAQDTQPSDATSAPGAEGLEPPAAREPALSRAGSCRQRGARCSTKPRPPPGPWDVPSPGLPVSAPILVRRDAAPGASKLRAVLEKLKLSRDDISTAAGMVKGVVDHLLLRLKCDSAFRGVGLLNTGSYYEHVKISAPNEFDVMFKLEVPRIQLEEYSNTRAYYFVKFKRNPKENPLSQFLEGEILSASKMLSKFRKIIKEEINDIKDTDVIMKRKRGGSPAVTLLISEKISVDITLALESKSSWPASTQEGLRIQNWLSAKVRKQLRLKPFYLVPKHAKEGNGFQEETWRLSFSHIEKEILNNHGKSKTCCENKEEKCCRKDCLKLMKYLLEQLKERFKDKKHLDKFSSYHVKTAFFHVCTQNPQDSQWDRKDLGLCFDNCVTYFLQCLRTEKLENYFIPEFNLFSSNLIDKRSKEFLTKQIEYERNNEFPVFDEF

Compound | IC50 (cGAS; [3]) [nM] | IC50 (cGAS; [4]) [nM] | IC50 [1] [nM] | Papp A→B (MDR1 (P-glycoprotein)) [×10⁻⁶ cm/s] | IC50 [2] [nM]
Cc1ccc(NC(=O)C[C@H]2C[C@@H](C(=O)O)N(c3nc(C)nc4c3oc3ccccc34)C2)cc1 [Compound 15, (2S,4R)-1-(2-methylbenzofuro[3,2-d]pyrimidin-4-yl)-4-(2-oxo-2-(p-tolylamino)ethyl)pyrrolidine-2-carboxylic acid] | 1000 to 5000 | 200 to 1000 | > 20000 | 1 to 5 | –
Cc1cccc(NC(=O)C[C@H]2C[C@@H](C(=O)O)N(c3nc(C)nc4c3oc3ccccc34)C2)c1 [Compound 16, (28.4R)-1-(2-methylbenzofuro[3,2-d]pyrimidin-4-yl)-4-(2-oxo-2-(m-tolylamino)ethyl)pyrrolidine-2-carboxylic acid] | 1000 to 5000 | 200 to 1000 | > 20000 | 1 to 5 | –
Cc1nc(N2C[C@@H](CC(=O)Nc3cccc(F)c3)C[C@H]2C(=O)O)c2oc3ccccc3c2n1 [Compound 19, (2S,4R)-4-(2-((3-fluorophenyl)amino)-2-oxoethyl)-1-(2-methylbenzofuro[3,2-d]pyrimidin-4-yl)pyrrolidine-2-carboxylic acid] | 1000 to 5000 | 200 to 1000 | 10000 to 20000 | 1 to 5 | –
Cc1nc(N2C[C@@H](CC(=O)Nc3ccccc3F)C[C@H]2C(=O)O)c2oc3ccccc3c2n1 [Compound 20, (2S,4R)-4-(2-((2-fluorophenyl)amino)-2-oxoethyl)-1-(2-methylbenzofuro[3,2-d]pyrimidin-4-yl)pyrrolidine-2-carboxylic acid] | > 5000 | 200 to 1000 | > 20000 | 1 to 5 | –
Cc1nc(N2C[C@@H](CC(=O)Nc3ccc(Cl)cc3)C[C@H]2C(=O)O)c2oc3ccccc3c2n1 [Compound 21, (28.4R)-4-(2-((4-chlorophenyl)amino)-2-oxoethyl)-1-(2-methylbenzofuro[3,2-d]pyrimidin-4-yl)pyrrolidine-2-carboxylic acid] | 1000 to 5000 | 100 to 200 | 10000 to 20000 | 1 to 5 | –
Cc1nc(N2C[C@@H](CC(=O)Nc3ccccc3Cl)C[C@H]2C(=O)O)c2oc3ccccc3c2n1 [Compound 23, (28.4R)-4-(2-((2-chlorophenyl)amino)-2-oxoethyl)-1-(2-methylbenzofuro[3,2-d]pyrimidin-4-yl)pyrrolidine-2-carboxylic acid] | > 5000 | 200 to 1000 | > 20000 | 1 to 5 | –
Cc1nc(N2C[C@@H](CC(=O)Nc3cccc(C(F)(F)F)c3)C[C@H]2C(=O)O)c2oc3ccccc3c2n1 [Compound 25, (2S,4R)-1-(2-methylbenzofuro[3,2-d]pyrimidin-4-yl)-4-(2-oxo-2-((3-(trifluoromethyl)phenyl)amino)ethyl)pyrrolidine-2-carboxylic acid] | > 5000 | 200 to 1000 | 10000 to 20000 | 1 to 5 | –
Cc1nc(N2C[C@@H](CC(=O)Nc3ccc(-c4ccc5cn[nH]c5c4)cc3)C[C@H]2C(=O)O)c2oc3ccccc3c2n1 [Compound 39, (28.4R)-4-(2-((4-(1H-indazol-6-yl)phenyl)amino)-2-oxoethyl)-1-(2-methylbenzofuro[3,2-d]pyrimidin-4-yl)pyrrolidine-2-carboxylic acid] | 500 to 1000 | 100 to 200 | 2500 to 10000 | – | 2500 to 10000
Cc1nc(N2C[C@@H](CC(=O)Nc3ccc(-c4ccc(N)nc4)cc3)C[C@H]2C(=O)O)c2oc3ccccc3c2n1 [Compound 40, (2S,4R)-4-(2-((4-(6-aminopyridin-3-yl)phenyl)amino)-2-oxoethyl)-1-(2-methylbenzofuro[3,2-d]pyrimidin-4-yl)pyrrolidine-2-carboxylic acid] | 200 to 500 | < 50 | 10000 to 20000 | – | > 20000
Cc1nc(N2C[C@@H](CC(=O)Nc3ccc(-c4ccnc(N)c4)cc3)C[C@H]2C(=O)O)c2oc3ccccc3c2n1 [Compound 41, (28.4R)-4-(2-((4-(2-aminopyridin-4-yl)phenyl)amino)-2-oxoethyl)-1-(2-methylbenzofuro[3,2-d]pyrimidin-4-yl)pyrrolidine-2-carboxylic acid] | 500 to 1000 | 100 to 200 | > 20000 | – | > 20000
Cc1nc(N2C[C@@H](CC(=O)Nc3ccc(-c4cccc(N)n4)cc3)C[C@H]2C(=O)O)c2oc3ccccc3c2n1 [Compound 42, (2S,4R)-4-(2-((4-(6-aminopyridin-2-yl)phenyl)amino)-2-oxoethyl)-1-(2-methylbenzofuro[3.2-d]pyrimidin-4-yl)pyrrolidine-2-carboxylic acid] | 500 to 1000 | 50 to 100 | > 20000 | – | > 20000
Cc1nc(N2C[C@@H](CC(=O)Nc3ccc(-c4cccnc4N)cc3)C[C@H]2C(=O)O)c2oc3ccccc3c2n1 [Compound 43, (28.4R)-4-(2-((4-(2-aminopyridin-3-yl)phenyl)amino)-2-oxoethyl)-1-(2-methylbenzofuro[3,2-d]pyrimidin-4-yl)pyrrolidine-2-carboxylic acid] | 500 to 1000 | 100 to 200 | > 20000 | – | > 20000
COc1cccc(-c2ccc(NC(=O)C[C@H]3C[C@@H](C(=O)O)N(c4nc(C)nc5c4oc4ccccc45)C3)cc2)c1 [Compound 50, (2S,4R)-4-(2-((3′-methoxy-[1,1′-biphenyl]-4-yl)amino)-2-oxoethyl)-1-(2-methylbenzofuro[3,2-d]pyrimidin-4-yl)pyrrolidine-2-carboxylic acid] | 200 to 500 | < 50 | < 1000 | 5 to 10 | –
Cc1nc(N2C[C@@H](CC(=O)Nc3ccc(-c4cccc(O)c4)cc3)C[C@H]2C(=O)O)c2oc3ccccc3c2n1 [Compound 51, (2S,4R)-4-(2-((3′-hydroxy-[1,1′-biphenyl]-4-yl)amino)-2-oxoethyl)-1-(2-methylbenzofuro[3,2-d]pyrimidin-4-yl)pyrrolidine-2-carboxylic acid] | < 200 | < 50 | 10000 to 20000 | – | > 20000
Cc1nc(N2C[C@@H](CC(=O)Nc3ccc(-c4ccccc4)cn3)C[C@H]2C(=O)O)c2oc3ccccc3c2n1 [Compound 67, (2S,4R)-1-(2-methylbenzofuro[3,2-d]pyrimidin-4-yl)-4-(2-oxo-2-((5-phenylpyridin-2-yl)amino)ethyl)pyrrolidine-2-carboxylic acid] | 500 to 1000 | 50 to 100 | 2500 to 10000 | 5 to 10 | –
